Assay results from PubChem BioAssay (NCI).
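Assay format: 96-well plates, 48-hour exposure. At the GI50, growth is halved. TGI marks complete inhibition of growth.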

Legend:
Test in all cases: inhibition of tumour cell growth, NCI panel, 48 h
[1] = tested on: SN12C renal
[2] = tested on: CAKI-1 renal
[3] = tested on: SK-MEL-2 melanoma
[4] = tested on: A549 NSCLC
[5] = tested on: SF-295 CNS
[6] = tested on: UO-31 renal
[7] = tested on: RPMI-8226 leukemia
[8] = tested on: SF-539 CNS
[9] = tested on: MDA-MB-231 breast
[10] = tested on: HOP-92 NSCLC
[11] = tested on: SNB-19 CNS
[12] = tested on: 786-0 renal
[13] = tested on: IGROV1 ovarian
[14] = tested on: HT29 colon
[15] = tested on: OVCAR-3 ovarian
[16] = tested on: HCT-116 colon
[17] = tested on: U251 CNS
[18] = tested on: MALME-3M melanoma
[19] = tested on: KM12 colon
[20] = tested on: K-562 leukemia
[21] = tested on: DU-145 prostate
[22] = tested on: T-47D breast
[23] = tested on: NCI-H226 lung
[24] = tested on: MDA-MB-435
[25] = tested on: OVCAR-4 ovarian
[26] = tested on: HCT-15 colon
[27] = tested on: HOP-62 NSCLC
[28] = tested on: HL-60(TB) leukemia
[29] = tested on: SW-620 colon
[30] = tested on: MOLT-4 leukemia
[31] = tested on: NCI-H23 lung
[32] = tested on: SK-OV-3 ovarian
[33] = tested on: NCI-H460 lung
[34] = tested on: SR leukemia
[35] = tested on: RXF 393 renal
[36] = tested on: SNB-75 CNS
[37] = tested on: OVCAR-8 ovarian
[38] = tested on: A498 renal
[39] = tested on: COLO 205 colon
[40] = tested on: HCC-2998 colon
[41] = tested on: HS 578T breast
[42] = tested on: NCI-H522 lung
[43] = tested on: SK-MEL-28 melanoma
[44] = tested on: CCRF-CEM leukemia
[45] = tested on: BT-549 breast
[46] = tested on: SF-268 CNS
[47] = tested on: MCF7 breast
[48] = tested on: ACHN renal
[49] = tested on: EKVX NSCLC
[50] = tested on: SK-MEL-5 melanoma
[51] = tested on: NCI/ADR-RES ovarian
[52] = tested on: M14 melanoma
[53] = tested on: UACC-257 melanoma
[54] = tested on: OVCAR-5 ovarian
[55] = tested on: PC-3 prostate
[56] = tested on: LOX IMVI melanoma
[57] = tested on: UACC-62 melanoma

CCn1c(CO)nn(-c2cc(O[C@@H](C)C(F)(F)F)c(C(=O)Nc3c(F)cccc3Cl)cc2F)c1=O
GI50 [1]: 0.081 µM
TGI [1]: > 100 µM
GI50 [2]: < 0.0148 µM
TGI [2]: > 100 µM
GI50 [3]: > 28.4 µM
TGI [3]: > 100 µM
GI50 [4]: < 0.01 µM
TGI [4]: > 100 µM
GI50 [5]: < 0.01 µM
TGI [5]: > 100 µM
GI50 [6]: 1.02 µM
TGI [6]: > 100 µM
GI50 [7]: < 0.01 µM
TGI [7]: > 62.2 µM
GI50 [8]: < 0.01 µM
TGI [8]: > 100 µM
GI50 [9]: > 20.1 µM
TGI [9]: > 100 µM
GI50 [10]: 17.7 µM
TGI [10]: > 100 µM
GI50 [11]: < 0.01 µM
TGI [11]: > 100 µM
GI50 [12]: < 0.0197 µM
TGI [12]: > 78 µM
GI50 [13]: < 0.0113 µM
TGI [13]: > 100 µM
GI50 [14]: < 0.01 µM
TGI [14]: > 100 µM
GI50 [15]: 0.0304 µM
TGI [15]: > 100 µM
GI50 [16]: < 0.01 µM
TGI [16]: > 100 µM
GI50 [17]: < 0.01 µM
TGI [17]: > 100 µM
GI50 [18]: > 32.2 µM
TGI [18]: > 100 µM
GI50 [19]: < 0.01 µM
TGI [19]: > 100 µM
GI50 [20]: < 0.01 µM
TGI [20]: > 100 µM
GI50 [21]: < 0.0192 µM
TGI [21]: > 100 µM
GI50 [22]: 0.0723 µM
TGI [22]: 86.2 µM
TGI [23]: > 100 µM
GI50 [24]: < 0.0176 µM
TGI [24]: > 100 µM
TGI [25]: > 100 µM
GI50 [26]: < 0.01 µM
TGI [26]: > 100 µM
GI50 [27]: < 0.0255 µM
TGI [27]: > 100 µM
GI50 [28]: 0.0357 µM
TGI [28]: > 46.7 µM
GI50 [29]: < 0.01 µM
TGI [29]: > 100 µM
GI50 [30]: < 0.01 µM
TGI [30]: > 100 µM
GI50 [31]: < 0.0438 µM
TGI [31]: > 100 µM
GI50 [32]: 3.05 µM
TGI [32]: > 100 µM
GI50 [33]: < 0.01 µM
TGI [33]: > 33.9 µM
GI50 [34]: < 0.01 µM
TGI [34]: > 43.1 µM
TGI [35]: > 100 µM
TGI [36]: > 100 µM
GI50 [37]: < 0.01 µM
TGI [37]: > 100 µM
GI50 [38]: 3.84 µM
TGI [38]: > 100 µM
GI50 [39]: < 0.01 µM
TGI [39]: > 100 µM
GI50 [40]: < 0.01 µM
TGI [40]: > 100 µM
GI50 [41]: > 22.3 µM
TGI [41]: > 100 µM
GI50 [42]: < 0.01 µM
TGI [42]: > 100 µM
GI50 [43]: > 24.4 µM
TGI [43]: > 100 µM
GI50 [44]: < 0.01 µM
TGI [44]: > 100 µM
TGI [45]: > 100 µM
GI50 [46]: 0.196 µM
TGI [46]: > 100 µM
GI50 [47]: < 0.01 µM
TGI [47]: > 100 µM
GI50 [48]: < 0.0122 µM
TGI [48]: > 100 µM
GI50 [49]: 8.47 µM
TGI [49]: > 100 µM
GI50 [50]: < 0.0152 µM
TGI [50]: > 39.1 µM
GI50 [51]: < 0.0245 µM
TGI [51]: > 93.5 µM
GI50 [52]: < 0.0144 µM
TGI [52]: > 100 µM
TGI [53]: > 100 µM
GI50 [54]: > 100 µM
TGI [54]: > 100 µM
GI50 [55]: < 0.01 µM
TGI [55]: > 100 µM
GI50 [56]: < 0.01 µM
GI50 [57]: < 0.0217 µM
TGI [57]: > 100 µM
